Reference: publication PMC10747430, “^99mTc-Labeled Cyclic Peptide Targeting PD-L1 as a Novel Nuclear Imaging Probe” (Pharmaceutics, 2023)

How the values were obtained:
[1] = tested on: lesions and adenopathies with high metabolic activity; experiment: [18F]FDG PET/CT imaging in a patient; assay type: in vivo, human; parameters: key: Lesions and adenopathies positive for high metabolic activity were detected with [^18F]FDG (✓)
Excerpt: A person (weight 60 kg; height 168 cm) diagnosed with advanced plantar malignant melanoma was enrolled in this study (Ethics Committee: Protocol No. 2023-MN02). The trial was approved based on the microdose concept and proof-of-concept studies. In addition, the ethical standards of the INCan Hospital based on the Declaration of Helsinki regarding human experimentation and the GMP certificate granted to ININ by the Mexican Ministry of Health were taken into account. The patient signed an informed consent form after receiving detailed information about the purpose of the study, which could help decide on treatment and monitor disease progression.
Table 2 provides a detailed analysis of the molecular imaging findings obtained in the [^99mTc]Tc-iPD-L1 SPECT/CT and [^18F]FDG/PET studies.

Stability in human serum = assay type: in vitro ADME; conditions: human serum (diluted 5x), 37 °C, n = 3
Experimental: (§1) The stability of [^99mTc]Tc-iPD-L1 and [^99mTc]Tc-WL12 was evaluated by diluting the samples in human serum (5x). The radiopharmaceuticals (n = 3) were heated at 37 °C and analyzed at 0.5, 3, and 24 h for radiochemical purity by size-exclusion radio-HPLC (ProteinPak 300SW, Waters Corporation, Milford, CT, USA).
(§2) The radioactivity from [^99mTc]Tc-iPD-L1 bound to serum proteins was 1.3 ± 0.8% at 30 min, 3.2 ± 1.3% at 3 h, and 7.6 ± 1.9% at 24 h. High radiochemical stability (>90% at 24 h) was also observed. In the case of [^99mTc]Tc-WL12, protein binding was 1.0 ± 0.4% at 30 min, 3.3 ± 0.9% at 3 h, and 6.0 ± 1.3% at 24 h, with a radiochemical purity of >90% at 24 h. Therefore, there was no significant difference […] in protein binding and serum stability between the radiotracers.

[2] = tested on: HCC827 lung cancer tumors; experiment: Biodistribution in mice bearing HCC827 tumors; assay type: in vivo, mouse; conditions: mice bearing HCC827 tumors
Experimental: All animal procedures were performed following the Institutional Animal Care and Use Committee requirements under an approved protocol (No. 09-2018-2022) and the Ethical Regulations for the Handling of Laboratory Animals (NOM-062-ZOO-1999). Male Nu/Nu (CINVESTAV, I.PN., Mexico City, Mexico) mice, 6–8 weeks of age, were maintained in an aseptic barrier environment. Mice were inoculated by subcutaneous injection of 1 × 10^6 HCC827 cells/0.1 mL PBS into the upper back. Injection sites were monitored periodically for tumor progression. On day ten after tumor cell inoculation, animals were injected with 18.5 MBq (50 µL) of [^99mTc]Tc-iPD-L1 or 18.5 MBq (50 µL) of [^99mTc]Tc-WL12 by tail vein injection. The animals were sacrificed at 1, 3, and 24 h (n = 3). Kidneys, lungs, heart, liver, spleen, pancreas, small intestine, stomach, muscle, and blood and tumor samples were dissected. Radioactivity was determined in a sodium iodide detector. The results were stated as % injected dose/g.
After 24 h, the activity in tumors was 3.21 ± 0.45 %ID/g ([^99mTc]Tc-WL12) and 5.65 ± 0.98 %ID/g ([^99mTc]Tc-iPD-L1). […] This behavior is related to the higher lipophilicity of [^99mTc]Tc-iPD-L1 compared to [^99mTc]Tc-WL12.

Serum protein binding = assay type: in vitro ADME; conditions: human serum (diluted 5x), 37 °C, size-exclusion radio-HPLC, n = 3
Experimental: as §1, §2

[3] = molecular target: T1, human recombinant PD-L1 protein (Homo sapiens, UniProt Q9NZQ7); experiment: Radio-SDS-PAGE molecular recognition by PD-L1 protein; assay type: binding; conditions: radiopeptide (1 mg/mL) incubated with PD-L1 (200 µg/mL) 30 min at 37 °C; 15% SDS-PAGE, radio-TLC scan
T1 construct: purchased FineTest P6857
Experimental: SDS-PAGE gel electrophoresis was performed. Radioactivity distribution was determined using a radio-TLC scanner (Mini-Gita, 60–150 keV, BGO-Crystal, window 25 × 2 mm, thickness 5 mm, resolution optimized for Tc-99m; RayTest, Munich, Germany) to detect [^99mTc]Tc-iPD-L1 and [^99mTc]Tc-WL12 binding to PD-L1 protein.
Briefly, ^99mTc-labeled WL12 and iPD-L1 solutions (100 µL) (1 mg/mL peptide) were incubated with human recombinant PD-L1 protein (100 µL) (200 µg/mL; FineTest; Cat: P6857) (radiopeptide-PD-L1 interaction) or human integrin αVβ3 protein (100 µL) (negative control; 200 µg/mL) (Chemicom, Merck; Burlington, MA, USA) (radiopeptide-integrin interaction) for 30 min at 37 °C, after which the samples were diluted with Laemmli sample buffer (containing 10% SDS, Tris-Cl 125 mM, pH = 6.8, 12.5% glycerol and 0.005% bromophenol blue after dye) to give final protein concentrations of 25 µg/mL. […] Finally, the radioactivity distribution on the gels was scanned using a radio-TLC detector to determine the percentage of [^99mTc]Tc-iPD-L1 or [^99mTc]Tc-WL12 radioactivity associated with proteins.
In vitro-specific recognition of [^99mTc]Tc-iPD-L1 and [^99mTc]Tc-WL12 by the PD-L1 protein was performed using a combination of radio-TLC and SDS-PAGE (radio-SDS-PAGE). […] Therefore, the radioactivity associated with free peptides is in the front of the gel plate (around 60–70 mm). […]

T1 sequence (Q9NZQ7 19-290): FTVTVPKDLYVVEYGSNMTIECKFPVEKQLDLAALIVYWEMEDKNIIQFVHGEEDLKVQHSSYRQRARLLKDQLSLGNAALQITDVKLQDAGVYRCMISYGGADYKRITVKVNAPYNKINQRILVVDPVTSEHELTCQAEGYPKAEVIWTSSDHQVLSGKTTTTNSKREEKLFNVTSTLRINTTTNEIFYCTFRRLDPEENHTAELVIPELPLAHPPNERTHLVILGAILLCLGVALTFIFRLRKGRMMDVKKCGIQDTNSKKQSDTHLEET

| SMILES | [18F]FDG Uptake ([1]; patient with plantar malignant melanoma, PET/CT, Mediastinal adenopathies level 4R, 8 and 10L up to 12 mm) | [18F]FDG Uptake ([1]; same patient, Adenopathies in the entire intramuscular tract of the left lower extremity up to 14 mm) | [18F]FDG Uptake ([1]; same patient, Adenopathies of the common, internal, external, and obturator iliac chains up to 26 mm) | [18F]FDG Uptake ([1]; same patient, Left femoral adenopathies of 12 mm) | [18F]FDG Uptake ([1]; same patient, Left inguinal adenopathies forming clusters of 29 mm) | [18F]FDG Uptake ([1]; same patient, Left popliteal hollow adenopathies up to 20 mm) | [18F]FDG Uptake ([1]; same patient, Left retrocrural adenopathy of 9 mm) | [18F]FDG Uptake ([1]; same patient, Liver, poorly defined hypodense images, the largest in segment 7) | [18F]FDG Uptake ([1]; same patient, Retroperitoneal paraaortic and intercavoaortic adenopathies of 14 mm) | [18F]FDG Uptake ([1]; same patient, exophytic lesion in the heel region of the left foot, 67 × 35 mm) | stability in human serum (Stability in human serum; 30 min, 3 h and 24 h, size-exclusion radio-HPLC) | remaining at 24 h (Stability in human serum; 24 h, size-exclusion radio-HPLC (ProteinPak 300SW), read-out: radiochemical stability / radiochemical purity in human serum at 24 h) | activity in blood, liver, and kidney compared to [99mTc]Tc-WL12 [2] | radioactivity bound to serum proteins at 30 min (Serum protein binding; 30 min) | radioactivity bound to serum proteins at 3 h (Serum protein binding; 3 h) | radioactivity bound to serum proteins at 24 h (Serum protein binding; 24 h) | radioactivity detected at the distance associated with the PD-L1 protein [3] |
| --- | --- | --- | --- | --- | --- | --- | --- | --- | --- | --- | --- | --- | --- | --- | --- | --- | --- |
| OC[C@H]1OC(O)[C@H]([18F])[C@@H](O)[C@@H]1O (some centres unmarked) [[^18F]FDG] | ✓ | ✓ | ✓ | ✓ | ✓ | ✓ | ✓ | ✓ | ✓ | ✓ | – | – | – | – | – | – | – |
| CC(C)C[C@@H]1NC(=O)[C@H](CC(C)C)NC(=O)[C@H](Cc2c[nH]c3ccccc23)NC(=O)[C@H](CO)NC(=O)[C@H](Cc2c[nH]c3ccccc23)NC(=O)[C@@H]2CCCN2C(=O)[C@H](CC(C)C)NC(=O)[C@H](Cc2c[nH]cn2)NC(=O)[C@@H]2CCCN2C(=O)[C@H](CC(N)=O)NC(=O)[C@H](C)NC(=O)[C@H](Cc2ccc(O)cc2)NC(=O)[C@H](CS)NC(=O)[C@H](CCCCNC(=O)c2ccc(NN)nc2)NC1=O [[^99mTc]Tc-iPD-L1, metal not drawn] | – | – | – | – | – | – | – | – | – | – | remained stable | > 90% | higher activity in blood, liver, and kidney | 1.3 ± 0.8% | 3.2 ± 1.3% | 7.6 ± 1.9% | 30% |
